Reference: patent US20250213701A1, “MEDICAMENT FOR TREATING HUMAN TUMOR BASED ON ERF3A-TARGETING PROTEOLYSIS MECHANISM” (SUZHOU DEGEN BIO-MEDICAL CO., LTD., priority 2022, published 2025)

Legend:
Type in all cases: cell-based, human
[1] = system: VCaP cells; test: Anti-proliferative toxicity against prostate cancer cell line Vcap (CCK8); settings: 3 days, CCK8
Protocol: (§1) Example 82: Detection of Anti-Proliferative Toxicity Against Prostate Cancer Cell Lines Vcap, 22Rv1, and PC-3
(§2) Vcap cells (purchased from the Cell Bank of the Chinese Academy of Sciences, Cat. No. SCSP-5034) were subcultured in a culture medium (DMEM medium+1% penicillin-streptomycin dual-antibiotic solution+10% fetal bovine serum) in an incubator at 5% carbon dioxide and 37° C. 22Rv1 cells (purchased from the Cell Bank of the Chinese Academy of Sciences, Cat. No. TCHu100) were subcultured in a culture medium (RPMI-1640 medium+1% penicillin-streptomycin dual-antibiotic solution+10% fetal bovine serum) in an incubator at 5% carbon dioxide and 37° C.
VCap cells were seeded at 20000 cells/well (90 μL) on a 96-well plate and cultured for 72 h. The original medium was removed, and a new medium of 90 μL was added.
(§3) 10 mM compound stock solutions were prepared in DMSO.
For VCap cells, the compound stock solution was diluted with DMSO to give DMSO solutions 1-10 at concentrations of 0 μM, 80 μM, 16 μM, 3.2 μM, 1.5 μM, 0.5 μM, 0.15 μM, 0.05 μM, 0.025 μM, and 0.0005 μM.
For Vcap cells, 2 μL of each of the above solutions 1-10 was added to 98 μL of Vcap medium to give mixed solutions 20-29 of the compound and the medium.
For Vcap cells, 10 μL of each of the above solutions 20-29 was added to the above cell seed solution to give a total volume of 100 μL (90 μL+10 μL), where the concentrations of the compound in wells were 0 μM, 0.16 μM, 0.032 μM, 0.006 μM, 0.003 μM, 0.001 μM, 0.0003 μM, 0.0001 μM, 0.00005 μM, and 0.00001 μM. All concentrations were in triplicate.
(§4) After the above-treated cells were cultured for 3 days, 10 μL of the CCK8 solution (DOJINDO, Cat. No. PF725) was added to each well. The plate was incubated in an incubator at 37° C. for 1-4 h and then detected on a microplate reader for the reading at 450 nm.

[2] = system: 22Rv1 cells; test: Anti-proliferative toxicity against prostate cancer cell line 22Rv1 (CCK8); settings: 3 days, CCK8
Protocol: as §1, §2
22Rv1 cells were seeded at 5000 cells/well (90 μL) on a 96-well plate and cultured for 48 h.
as §3
(§5) For 22Rv1 cells and PC-3 cells, the compound stock solution was diluted with DMSO to give DMSO solutions 11-19 at concentrations of 0 μM, 500 μM, 100 μM, 20 μM, 4 μM, 0.8 μM, 0.16 μM, 0.032 μM, 0.0064 μM.
For 22Rv1 cells, 2 μL of each of the above solutions 11-19 was added to 98 μL of 22Rv1 medium to give mixed solutions 30-38 of the compound and the medium.
(§6) For 22Rv1 and PC-3 cells, 10 μL of each of the above solutions 30-38 or 39-47 was added to the above cell seed solution to give a total volume of 100 μL (90 μL+10 μL), where the concentrations of the compound in wells were 0 μM, 1.0 μM, 0.2 μM, 0.04 μM, 0.008 μM, 0.0016 μM, 0.00032 μM, 0.00006 μM, and 0.00001 μM. All concentrations were in triplicate.
as §4

[3] = system: PC-3 cells; test: Anti-proliferative toxicity against prostate cancer cell line PC-3 (CCK8); settings: 3 days
Protocol: as §1
PC-3 cells (purchased from the Cell Bank of the Chinese Academy of Sciences, Cat. No. SCSP-532) were subcultured in a culture medium (F12K medium+1% penicillin-streptomycin dual-antibiotic solution+10% fetal bovine serum) in an incubator at 5% carbon dioxide and 37° C.
PC-3 cells were seeded at 4000 cells/well (90 μL) on a 96-well plate and cultured for 24 h.
as §3, §5
For PC-3 cells, 2 μL of each of the above solutions 11-19 was added to 98 μL of PC-3 medium to give mixed solutions 39-47 of the compound and the medium.
as §6, §4

| SMILES | IC50 ([1]; Homo sapiens, 72 h) [nM] | IC50 ([2]; Homo sapiens, 72 h) [nM] | IC50 ([3]; Homo sapiens, 72 h) [nM] | IC50 [1] [nM] | IC50 [2] [nM] | IC50 [3] [nM] |
| --- | --- | --- | --- | --- | --- | --- |
| [2H][C@@]1(Nc2cccc(NC(=O)[C@H]3CC[C@H]4[C@@H]5CC[C@H]6NC(=O)C=C[C@]6(C)[C@H]5CC[C@]34C)c2)CCC[C@@]([2H])(Nc2cccc3c2C(=O)N(C2CCC(=O)NC2=O)C3=O)C1 (stereo partly drawn) [C68, N-(3-(N—(N-(4-(2-(3-(2,6-dioxopiperidine))-isoindole-1,3-dione))-1,3-dideutero-1R,3R-cyclohexanediamine))phenyl)-3-oxo-4-aza-5α-androst-1-ene-17β-carboxamide] | ≤ 0.1 | 0.1 to 10 | 0.1 to 10 |  |  |  |
| C[C@]12C=CC(=O)N[C@@H]1CC[C@@H]1[C@@H]2CC[C@]2(C)[C@@H](C(=O)Nc3cccc(N[C@@H]4CNC[C@@H](Nc5cccc6c5C(=O)N(C5CCC(=O)NC5=O)C6=O)C4)c3)CC[C@@H]12 (stereo partly drawn) [C76, N-(3-(N—(N-(4-(2-(3-(2,6-dioxopiperidine))-isoindole-1,3-dione))-piperidine-3S,5S-diamine))phenyl)-3-oxo-4-aza-5α-androst-1-ene-17β-carboxamide] | 10 to 1000 | 10 to 1000 | 10 to 1000 |  |  |  |
| C[C@]12C=CC(=O)N[C@@H]1CC[C@@H]1[C@@H]2CC[C@]2(C)[C@@H](C(=O)Nc3cccc(OC4CCC(Nc5cccc6c5C(=O)N(C5CCC(=O)NC5=O)C6=O)C4)c3)CC[C@@H]12 (stereo partly drawn) [C57, N-(3-((3-((4-(2-(3-(2,6-dioxopiperidine))-isoindole-1,3-dione))amino)cyclopentyl)oxy)phenyl)-3-oxo-4-aza-5α-androst-1-ene-17β-carboxamide] | 10 to 1000 | 10 to 1000 | > 1000 |  |  |  |
| C[C@]12C=CC(=O)N[C@@H]1CC[C@@H]1[C@@H]2CC[C@]2(C)[C@@H](C(=O)Nc3cccc(OCCCCCCCNc4cccc5c4C(=O)N(C4CCC(=O)NC4=O)C5=O)c3)CC[C@@H]12 (stereo partly drawn) [C37, N-(3-((7-((4-(2-(3-(2,6-dioxopiperidine))-isoindole-1,3-dione))amino)heptyl)oxy)phenyl)-3-oxo-4-aza-5α-androst-1-ene-17β-carboxamide] | > 1000 | > 1000 | > 1000 |  |  |  |
| C[C@]12C=CC(=O)N[C@@H]1CC[C@@H]1[C@@H]2CC[C@]2(C)[C@@H](C(=O)Nc3cccc(OCCNc4cccc5c4C(=O)N(C4CCC(=O)NC4=O)C5=O)c3)CC[C@@H]12 (stereo partly drawn) [C27, N-(3-((2-((4-(2-(3-(2,6-dioxopiperidine))-isoindole-1,3-dione))amino)ethyl)oxy)phenyl)-3-oxo-4-aza-5α-androst-1-ene-17β-carboxamide] | 10 to 1000 | > 1000 | > 1000 |  |  |  |
| C[C@]12C=CC(=O)N[C@@H]1CC[C@@H]1[C@@H]2CC[C@]2(C)[C@@H](C(=O)Nc3cccc(N[C@H]4C[C@H](Nc5cccc6c5C(=O)N(C5CCC(=O)NC5=O)C6=O)CC(F)(F)C4)c3)CC[C@@H]12 (stereo partly drawn) [C74, N-(3-(N—(N-(4-(2-(3-(2,6-dioxopiperidine))-isoindole-1,3-dione))-5,5-difluoro-1S,3S-cyclohexanediamine))phenyl)-3-oxo-4-aza-5α-androst-1-ene-17β-carboxamide] | 0.1 to 10 | 0.1 to 10 | 10 to 1000 |  |  |  |
| Cc1ccc(NC(=O)[C@H]2CC[C@H]3[C@@H]4CC[C@H]5NC(=O)C=C[C@]5(C)[C@H]4CC[C@]23C)cc1OCCCNc1cccc2c1C(=O)N(C1CCC(=O)NC1=O)C2=O (stereo partly drawn) [C52, N-(3-((3-((4-(2-(3-(2,6-dioxopiperidine))-isoindole-1,3-dione))amino)propyl)oxy)-4-methyl-phenyl)-3-oxo-4-aza-5α-androst-1-ene-17β-carboxamide] | > 1000 | > 1000 | > 1000 |  |  |  |
| C[C@]12C=CC(=O)N[C@@H]1CC[C@@H]1[C@@H]2CC[C@]2(C)[C@@H](C(=O)Nc3cccc(OCC4CCN(c5cccc6c5C(=O)N(C5CCC(=O)NC5=O)C6=O)CC4)c3)CC[C@@H]12 (stereo partly drawn) [C42, N-(3-((4-methyl-1-(4-(2-(3-(2,6-dioxopiperidine))-isoindole-1,3-dione))-piperidinyl)oxy)phenyl)-3-oxo-4-aza-5α-androst-1-ene-17β-carboxamide] | > 1000 | > 1000 | > 1000 |  |  |  |
| C[C@]12CCC(=O)N[C@@H]1CC[C@@H]1[C@@H]2CC[C@]2(C)[C@@H](C(=O)Nc3cccc(N[C@@H]4CCC[C@@H](Nc5cccc6c5C(=O)N(C5CCC(=O)NC5=O)C6=O)C4)c3)CC[C@@H]12 (stereo partly drawn) [C81, N-(3-(N—(N-(4-(2-(3-(2,6-dioxopiperidine))-isoindole-1,3-dione))-1R,3R-cyclohexanediamine))phenyl)-3-oxo-4-aza-5α-androstane-17β-carboxamide] |  |  |  | 0.1 to 10 | 0.1 to 10 | 10 to 1000 |
| C[C@]12C=CC(=O)N[C@@H]1CC[C@@H]1[C@@H]2CC[C@]2(C)[C@@H](C(=O)Nc3cccc(N[C@@H]4CCC[C@@H](Nc5ccc(F)c6c5C(=O)N(C5CCC(=O)NC5=O)C6=O)C4)c3)CC[C@@H]12 (stereo partly drawn) [C78, N-(3-(N—(N-(7-fluoro-4-(2-(3-(2,6-dioxopiperidine))-isoindole-1,3-dione))-1R,3R-cyclohexanediamine))phenyl)-3-oxo-4-aza-5α-androst-1-ene-17β-carboxamide] | 0.1 to 10 | 0.1 to 10 | 0.1 to 10 |  |  |  |
| C[C@]12C=CC(=O)N[C@@H]1CC[C@@H]1[C@@H]2CC[C@]2(C)[C@@H](C(=O)NCCNc3ccc4c(c3)C(=O)N(C3CCC(=O)NC3=O)C4=O)CC[C@@H]12 (stereo partly drawn) [C2, N-(2-((5-(2-(3-(2,6-dioxopiperidine))-isoindole-1,3-dione))amino)ethyl)-3-oxo-4-aza-5α-androst-1-ene-17β-carboxamide] | > 1000 | > 1000 | > 1000 |  |  |  |
| C[C@]12C=CC(=O)N[C@@H]1CC[C@@H]1[C@@H]2CC[C@]2(C)[C@@H](C(=O)NCCCCCNc3ccc4c(c3)C(=O)N(C3CCC(=O)NC3=O)C4=O)CC[C@@H]12 (stereo partly drawn) [C8, N-(5-((5-(2-(3-(2,6-dioxopiperidine))-isoindole-1,3-dione))amino)pentyl)-3-oxo-4-aza-5α-androst-1-ene-17β-carboxamide] | > 1000 | > 1000 | > 1000 |  |  |  |
| C[C@]12C=CC(=O)N[C@@H]1CC[C@@H]1[C@@H]2CC[C@]2(C)[C@@H](C(=O)Nc3cccc(N[C@H]4CCC[C@H](Nc5cccc6c5C(=O)N(C5CCC(=O)NC5=O)C6=O)C4)c3)CC[C@@H]12 (stereo partly drawn) [C60, N-(3-(N—(N-(4-(2-(3-(2,6-dioxopiperidine))-isoindole-1,3-dione))-1S,3S-cyclohexanediamine))phenyl)-3-oxo-4-aza-5α-androst-1-ene-17β-carboxamide] | 10 to 1000 | 10 to 1000 | > 1000 |  |  |  |
| C[C@]12C=CC(=O)N[C@@H]1CC[C@@H]1[C@@H]2CC[C@]2(C)[C@@H](C(=O)Nc3cc(Cl)cc(OCCCNc4cccc5c4C(=O)N(C4CCC(=O)NC4=O)C5=O)c3)CC[C@@H]12 (stereo partly drawn) [C55, N-(3-((3-((4-(2-(3-(2,6-dioxopiperidine))-isoindole-1,3-dione))amino)propyl)oxy)-5-chloro-phenyl)-3-oxo-4-aza-5α-androst-1-ene-17β-carboxamide] | 10 to 1000 | 10 to 1000 | > 1000 |  |  |  |
